From EP4122466A1 (priority 2021, dated 2023)
Entries after “also recorded” stand apart in the source; their conditions may differ.

Legend:
[1] = tested on: VSV*ΔG(Luc)-S virus; assay: organism not typed; format: cell-based
[2] = tested on: SARS-CoV-2 pseudovirus; format: cell-based
[3] = tested on: VSV.G virus; format: cell-based
[4] = tested on: SARS-CoV-2; conditions: cited from earlier work
[5] = tested on: Human Lung Tissue (HTL) cells

SMILES | EC50 [1] | inhibition of virus infection [2] | inhibition of the VSV.G virus [3] | in vitro activity against SARS-CoV-2 [4] | decrease in infection rate [1] | infection rate [1] | cell death [5]
Cc1cn(-c2cc(NC(=O)c3ccc(C)c(Nc4nccc(-c5cccnc5)n4)c3)cc(C(F)(F)F)c2)cn1 [nilotinib] | > 15 µM | dose-dependent inhibition of virus infection | partially inhibit | did show in vitro antiviral effect | – | – | –
Cc1ccc(NC(=O)c2ccc(CN3CCN(C)CC3)cc2)cc1Nc1nccc(-c2cccnc2)n1 [imatinib] | – | – | – | do not show antiviral efficacy | – | – | –
Cc1cccc(/C=N/Nc2cc(N3CCOCC3)nc(OCCc3ccccn3)n2)c1 [apilimod] | – | dose-dependent inhibition of virus infection | partially inhibit | – | lower decrease in infection rate | 50% | –
CN1CCN(c2ccc(C(=O)Nc3n[nH]c4ccc(Cc5cc(F)cc(F)c5)cc34)c(NC3CCOCC3)c2)CC1 [entrectinib] | < 1 µM | dose-dependent inhibition of virus infection | partially inhibit; also recorded: demonstrated an antiviral effect | – | – | – | without inducing significant cell death
